Legend:
HiBit-BRM fusion protein = molecular target: T1, HiBit-BRM fusion protein (Homo sapiens, UniProt P51531); test: HiBiT-BRM cell-based degradation assay (Nano-Glo HiBiT Lytic Detection, 24 h); settings: stable HeLa cell line expressing HiBiT-BRM; for DC50: read-out: BRM HiBit Degradation IC50
T1 construct: expressed in transfected cells
In short: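 Luminescence from LgBiT complementation after lysis measured HiBiT-BRM levels in stably expressing HeLa cells. Compounds were dosed at up to 30 μM final, in 3-fold 10-point dilutions, for 24 h. Percent degradation was scaled between DMSO wells and wells treated with 2 μM standard BRM/BRG1 degrader.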

[1] = molecular target: T2, HiBit-BRG1 fusion protein (Homo sapiens, UniProt P51532); test: HiBiT-BRG1 cell-based degradation assay (Nano-Glo HiBiT Lytic Detection, 24 h); settings: stable HeLa cell line expressing HiBit-BRG1 and LgBit; for Dmax: read-out: BRG1 HiBit Degradation Maximum (%); for DC50: read-out: BRMG1 HiBit Degradation IC50
T2 construct: expressed in transfected cells
In short: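 Degradation read by lytic NanoBiT luminescence after 24 h compound exposure of a stable HiBit-BRG1/LgBit HeLa line. Ten-point, 3-fold series in duplicate, top final dose 30 μM; DMSO and 2 μM standard degrader define 0% and 100% degradation.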

T1 sequence (P51531 whole entry, the tested form may be a part): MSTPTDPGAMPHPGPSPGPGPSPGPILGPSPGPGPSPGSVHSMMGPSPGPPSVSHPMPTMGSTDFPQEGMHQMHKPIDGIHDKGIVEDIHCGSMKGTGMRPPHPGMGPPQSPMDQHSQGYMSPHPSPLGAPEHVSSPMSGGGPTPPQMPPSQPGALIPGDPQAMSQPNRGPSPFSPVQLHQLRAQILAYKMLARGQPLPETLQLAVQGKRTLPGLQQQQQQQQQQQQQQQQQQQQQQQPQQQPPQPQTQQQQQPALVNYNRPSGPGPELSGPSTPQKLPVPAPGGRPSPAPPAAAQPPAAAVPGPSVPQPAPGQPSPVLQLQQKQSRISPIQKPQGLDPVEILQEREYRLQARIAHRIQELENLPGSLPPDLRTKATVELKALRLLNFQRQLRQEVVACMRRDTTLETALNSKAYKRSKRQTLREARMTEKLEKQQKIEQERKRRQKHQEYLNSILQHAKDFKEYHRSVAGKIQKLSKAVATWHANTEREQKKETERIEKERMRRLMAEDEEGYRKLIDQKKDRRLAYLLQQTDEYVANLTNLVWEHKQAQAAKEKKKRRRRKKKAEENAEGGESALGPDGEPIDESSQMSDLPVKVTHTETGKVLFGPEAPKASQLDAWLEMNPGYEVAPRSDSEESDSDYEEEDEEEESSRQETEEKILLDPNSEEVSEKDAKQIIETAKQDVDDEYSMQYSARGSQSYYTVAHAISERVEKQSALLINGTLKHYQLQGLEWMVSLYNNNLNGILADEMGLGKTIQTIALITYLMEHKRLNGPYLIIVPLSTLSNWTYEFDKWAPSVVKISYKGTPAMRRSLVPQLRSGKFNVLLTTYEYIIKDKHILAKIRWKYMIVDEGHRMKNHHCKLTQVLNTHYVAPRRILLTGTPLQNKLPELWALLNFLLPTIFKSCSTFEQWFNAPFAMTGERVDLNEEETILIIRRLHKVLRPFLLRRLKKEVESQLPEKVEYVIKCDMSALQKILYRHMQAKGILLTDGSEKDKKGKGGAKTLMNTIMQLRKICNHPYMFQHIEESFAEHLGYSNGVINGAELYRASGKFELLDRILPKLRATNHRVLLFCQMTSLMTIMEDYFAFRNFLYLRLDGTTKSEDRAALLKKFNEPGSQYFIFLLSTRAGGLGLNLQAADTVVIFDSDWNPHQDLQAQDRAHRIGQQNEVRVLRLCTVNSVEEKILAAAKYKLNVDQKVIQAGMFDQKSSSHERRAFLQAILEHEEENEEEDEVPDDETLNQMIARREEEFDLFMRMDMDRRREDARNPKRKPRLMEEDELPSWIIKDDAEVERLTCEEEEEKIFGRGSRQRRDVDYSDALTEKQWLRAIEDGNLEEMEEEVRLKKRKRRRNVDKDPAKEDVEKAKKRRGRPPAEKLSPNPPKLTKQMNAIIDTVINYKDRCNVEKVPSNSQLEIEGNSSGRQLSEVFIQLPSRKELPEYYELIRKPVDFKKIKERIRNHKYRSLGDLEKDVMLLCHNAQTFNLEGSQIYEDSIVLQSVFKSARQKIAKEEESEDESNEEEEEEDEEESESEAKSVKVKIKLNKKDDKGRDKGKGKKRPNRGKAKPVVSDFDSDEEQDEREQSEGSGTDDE
T2 sequence (P51532 whole entry, the tested form may be a part): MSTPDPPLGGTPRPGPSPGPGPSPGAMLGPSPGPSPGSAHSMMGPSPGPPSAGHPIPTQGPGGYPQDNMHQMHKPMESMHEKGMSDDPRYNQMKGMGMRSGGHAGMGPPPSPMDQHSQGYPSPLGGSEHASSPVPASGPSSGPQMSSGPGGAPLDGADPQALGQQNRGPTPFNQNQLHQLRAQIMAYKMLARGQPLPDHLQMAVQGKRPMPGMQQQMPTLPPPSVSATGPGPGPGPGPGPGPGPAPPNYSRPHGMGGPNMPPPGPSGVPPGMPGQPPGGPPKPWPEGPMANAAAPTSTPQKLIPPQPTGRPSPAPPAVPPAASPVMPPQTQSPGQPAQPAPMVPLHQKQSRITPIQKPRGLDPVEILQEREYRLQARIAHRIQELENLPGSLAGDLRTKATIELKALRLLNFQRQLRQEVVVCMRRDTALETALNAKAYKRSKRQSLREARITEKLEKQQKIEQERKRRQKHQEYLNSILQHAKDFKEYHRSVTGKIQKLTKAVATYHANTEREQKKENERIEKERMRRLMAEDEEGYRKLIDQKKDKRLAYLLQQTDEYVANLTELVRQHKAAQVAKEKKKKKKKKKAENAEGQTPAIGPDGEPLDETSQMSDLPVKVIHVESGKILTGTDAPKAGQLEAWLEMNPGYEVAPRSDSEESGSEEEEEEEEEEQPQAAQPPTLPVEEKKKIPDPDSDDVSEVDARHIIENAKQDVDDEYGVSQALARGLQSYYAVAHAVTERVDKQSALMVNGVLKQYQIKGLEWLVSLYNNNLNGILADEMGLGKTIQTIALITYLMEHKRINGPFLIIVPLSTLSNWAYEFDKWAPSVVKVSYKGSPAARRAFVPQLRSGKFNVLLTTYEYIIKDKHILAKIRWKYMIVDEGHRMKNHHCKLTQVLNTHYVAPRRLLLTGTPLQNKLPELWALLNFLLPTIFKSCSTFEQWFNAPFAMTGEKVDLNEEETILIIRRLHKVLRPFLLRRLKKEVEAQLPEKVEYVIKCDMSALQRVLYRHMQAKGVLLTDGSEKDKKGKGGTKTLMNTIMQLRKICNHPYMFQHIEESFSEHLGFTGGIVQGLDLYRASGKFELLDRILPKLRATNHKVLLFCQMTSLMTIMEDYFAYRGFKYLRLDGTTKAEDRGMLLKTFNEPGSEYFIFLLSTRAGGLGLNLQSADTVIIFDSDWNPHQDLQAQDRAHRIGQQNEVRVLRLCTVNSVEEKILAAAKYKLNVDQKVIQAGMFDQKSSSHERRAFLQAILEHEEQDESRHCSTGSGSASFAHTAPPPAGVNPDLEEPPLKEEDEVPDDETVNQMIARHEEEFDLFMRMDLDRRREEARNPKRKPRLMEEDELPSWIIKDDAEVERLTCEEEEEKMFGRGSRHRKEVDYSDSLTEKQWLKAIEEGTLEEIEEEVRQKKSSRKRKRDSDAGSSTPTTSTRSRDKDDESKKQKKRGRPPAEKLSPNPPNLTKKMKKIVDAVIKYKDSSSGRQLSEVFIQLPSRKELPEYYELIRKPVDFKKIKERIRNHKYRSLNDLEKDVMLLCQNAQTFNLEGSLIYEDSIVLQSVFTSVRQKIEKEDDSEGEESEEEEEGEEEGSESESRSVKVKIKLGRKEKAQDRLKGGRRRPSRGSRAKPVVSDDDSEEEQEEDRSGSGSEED

`Cc1ncsc1-c1ccc([C@H](C)NC(=O)[C@@H]2C[C@@H](O)CN2C(=O)[C@@H](c2cc(-c3cnc(N4CCC(c5sc6nnc(-c7ccccc7O)cc6c5C5CC5)CC4)nc3)no2)C(C)C)cc1` [Compound 84, (2S,4R)-1-((R)-2-(3-(2-(4-(5-cyclopropyl-3-(2-hydroxyphenyl)thieno[2,3-c]pyridazin-6-yl)piperidin-1-yl)pyrimidin-5-yl)isoxazol-5-yl)-3-methylbutanoyl)-4-hydroxy-N-((S)-1-(4-(4-methylthiazol-5-yl)phenyl)ethyl)pyrrolidine-2-carboxamide] was tested, and the “BRM HiBit Degradation Maximum (%)” value (HiBit-BRM fusion protein) was “B (“B” indicates maximum degradation ≥50%)”, the DC50 (HiBit-BRM fusion protein) was > 0.01 µM and the Dmax [1] was < 50%.

`Cc1ncsc1-c1ccc([C@H](C)NC(=O)[C@@H]2C[C@@H](O)CN2C(=O)[C@@H](c2cc(N3CC(c4sc5nnc(-c6ccccc6O)cc5c4C)C3)no2)C(C)C)cc1` [Compound 19, (2S,4R)-4-hydroxy-1-((R)-2-(3-(3-(3-(2-hydroxyphenyl)-5-methylthieno[2,3-c]pyridazin-6-yl)azetidin-1-yl)isoxazol-5-yl)-3-methylbutanoyl)-N-((S)-1-(4-(4-methylthiazol-5-yl)phenyl)ethyl)pyrrolidine-2-carboxamide] was tested, and the “BRM HiBit Degradation Maximum (%)” value (HiBit-BRM fusion protein) was 2%, the DC50 (HiBit-BRM fusion protein) was > 1 µM and the Dmax [1] was < 50%. The DC50 [1] was > 1 µM.

In the case of `Cc1ncsc1-c1ccc([C@H](C)NC(=O)[C@@H]2C[C@@H](O)CN2C(=O)[C@@H](c2cc(-c3cnc(N4CC[C@H](c5cc6cc(-c7ccccc7O)nnc6s5)C4)nc3)no2)C(C)C)cc1` [Compound 6, (2S,4R)-4-hydroxy-1-((R)-2-(3-(2-((S)-3-(3-(2-hydroxyphenyl)thieno[2,3-c]pyridazin-6-yl)pyrrolidin-1-yl)pyrimidin-5-yl)isoxazol-5-yl)-3-methylbutanoyl)-N-((S)-1-(4-(4-methylthiazol-5-yl)phenyl)ethyl)pyrrolidine-2-carboxamide], the “BRM HiBit Degradation Maximum (%)” value (HiBit-BRM fusion protein) is reported as “A (“A” indicates maximum degradation ≥75%)”, the DC50 (HiBit-BRM fusion protein) is reported as < 0.01 µM and the Dmax [1] is reported as < 50%. For the same molecule, the DC50 [1] was > 1 µM.

For `Cc1ncsc1-c1ccc([C@H](C)NC(=O)[C@@H]2C[C@@H](O)CN2C(=O)[C@@H](c2cc([C@H]3CC[C@@H](c4cnc(N5CCC(c6sc7nnc(-c8ccccc8O)cc7c6C)CC5)nc4)CC3)no2)C(C)C)cc1` (single isomer, unassigned) [Compound 65], the “BRM HiBit Degradation Maximum (%)” value (HiBit-BRM fusion protein) was “A (“A” indicates maximum degradation ≥75%)”, the DC50 (HiBit-BRM fusion protein) was > 0.01 µM and the Dmax [1] was < 50%. The DC50 [1] was > 1 µM.

With `COc1nc(N2CCC(c3sc4nnc(-c5ccccc5O)cc4c3C)CC2)ccc1-c1cc([C@H](C(=O)N2C[C@H](O)C[C@H]2C(=O)N[C@@H](C)c2ccc(-c3scnc3C)cc2)C(C)C)on1` [Compound 20, (2S,4R)-4-hydroxy-1-((R)-2-(3-(6-(4-(3-(2-hydroxyphenyl)-5-methylthieno[2,3-c]pyridazin-6-yl)piperidin-1-yl)-2-methoxypyridin-3-yl)isoxazol-5-yl)-3-methylbutanoyl)-N-((S)-1-(4-(4-methylthiazol-5-yl)phenyl)ethyl)pyrrolidine-2-carboxamide] the “BRM HiBit Degradation Maximum (%)” value (HiBit-BRM fusion protein) was “A (“A” indicates maximum degradation ≥75%)”, the DC50 (HiBit-BRM fusion protein) was > 0.01 µM and the Dmax [1] was < 50%. For the same molecule, the DC50 [1] was > 1 µM.

In the case of `Cc1ncsc1-c1ccc([C@H](C)NC(=O)[C@@H]2C[C@@H](O)CN2C(=O)[C@@H](c2cc(-c3cnc(N4CCC(O)(c5sc6nnc(-c7ccccc7O)cc6c5C)CC4)nc3)no2)C(C)C)cc1` [Compound 52, (2S,4R)-4-hydroxy-1-((R)-2-(3-(2-(4-hydroxy-4-(3-(2-hydroxyphenyl)-5-methylthieno[2,3-c]pyridazin-6-yl)piperidin-1-yl)pyrimidin-5-yl)isoxazol-5-yl)-3-methylbutanoyl)-N-((S)-1-(4-(4-methylthiazol-5-yl)phenyl)ethyl)pyrrolidine-2-carboxamide], the “BRM HiBit Degradation Maximum (%)” value (HiBit-BRM fusion protein) is reported as “B (“B” indicates maximum degradation ≥50%)”, the DC50 (HiBit-BRM fusion protein) is reported as > 0.01 µM and the Dmax [1] is reported as < 50%. The DC50 [1] was > 1 µM.

`Cc1nc(N2CCC(c3sc4nnc(-c5ccccc5O)cc4c3C)CC2)ccc1-c1noc([C@H](C(=O)N2C[C@H](O)C[C@H]2C(=O)N[C@@H](C)c2ccc(-c3scnc3C)cc2)C(C)C)c1C` [Compound 92, (2S,4R)-4-hydroxy-1-((R)-2-(3-(6-(4-(3-(2-hydroxyphenyl)-5-methylthieno[2,3-c]pyridazin-6-yl)piperidin-1-yl)-2-methylpyridin-3-yl)-4-methylisoxazol-5-yl)-3-methylbutanoyl)-N-((S)-1-(4-(4-methylthiazol-5-yl)phenyl)ethyl)pyrrolidine-2-carboxamide] was tested, and the “BRM HiBit Degradation Maximum (%)” value (HiBit-BRM fusion protein) was “A (“A” indicates maximum degradation ≥75%)”, the DC50 (HiBit-BRM fusion protein) was < 0.01 µM and the Dmax [1] was > 75%. For the same molecule, the DC50 [1] was > 0.01 µM.

With `Cc1ncsc1-c1ccc([C@H](C)NC(=O)[C@@H]2C[C@@H](O)CN2C(=O)[C@@H](c2cc(-c3cnc(N4C[C@H]5C[C@@H]4C[C@@H]5c4cc5cc(-c6ccccc6O)nnc5s4)nc3)no2)C(C)C)cc1` [Compound 22, (2S,4R)-4-hydroxy-1-((R)-2-(3-(2-((1R,4S,5S)-5-(3-(2-hydroxyphenyl)thieno[2,3-c]pyridazin-6-yl)-2-azabicyclo[2.2.1]heptan-2-yl)pyrimidin-5-yl)isoxazol-5-yl)-3-methylbutanoyl)-N-((S)-1-(4-(4-methylthiazol-5-yl)phenyl)ethyl)pyrrolidine-2-carboxamide] the “BRM HiBit Degradation Maximum (%)” value (HiBit-BRM fusion protein) was “A (“A” indicates maximum degradation ≥75%)”, the DC50 (HiBit-BRM fusion protein) was < 0.01 µM and the Dmax [1] was < 50%. The DC50 [1] was > 1 µM.

In the case of `Cc1ncsc1-c1ccc([C@H](C)NC(=O)[C@@H]2C[C@@H](O)CN2C(=O)[C@@H](c2cc(-c3cnc(N4C[C@@H]5[C@H](C4)[C@H]5c4sc5nnc(-c6ccccc6O)cc5c4C)nc3)no2)C(C)C)cc1` (stereo in doubt) [Compound 40, (2S,4R)-4-hydroxy-1-((R)-2-(3-(2-((1R,5R)-6-(3-(2-hydroxyphenyl)-5-methylthieno[2,3-c]pyridazin-6-yl)-3-azabicyclo[3.1.0]hexan-3-yl)pyrimidin-5-yl)isoxazol-5-yl)-3-methylbutanoyl)-N-((S)-1-(4-(4-methylthiazol-5-yl)phenyl)ethyl)pyrrolidine-2-carboxamide], the “BRM HiBit Degradation Maximum (%)” value (HiBit-BRM fusion protein) is reported as “A (“A” indicates maximum degradation ≥75%)”, the DC50 (HiBit-BRM fusion protein) is reported as < 0.01 µM and the Dmax [1] is reported as < 50%. For the same molecule, the DC50 [1] was > 0.1 µM.

`Cc1ncsc1-c1ccc([C@H](C)NC(=O)[C@@H]2C[C@@H](O)CN2C(=O)[C@@H](c2cc(N3CC4(CC(c5cc6nnc(-c7ccccc7O)cc6s5)C4)C3)no2)C(C)C)cc1` [Compound 69, (2S,4R)-4-hydroxy-1-((R)-2-(3-(6-(3-(2-hydroxyphenyl)thieno[3,2-c]pyridazin-6-yl)-2-azaspiro[3.3]heptan-2-yl)isoxazol-5-yl)-3-methylbutanoyl)-N-((S)-1-(4-(4-methylthiazol-5-yl)phenyl)ethyl)pyrrolidine-2-carboxamide] was tested, and the “BRM HiBit Degradation Maximum (%)” value (HiBit-BRM fusion protein) was “A (“A” indicates maximum degradation ≥75%)”, the DC50 (HiBit-BRM fusion protein) was < 0.01 µM and the Dmax [1] was > 75%. The DC50 [1] was < 0.01 µM.

With `Cc1cc(N2CC[C@H](c3sc4nnc(-c5ccccc5O)cc4c3C)C2)ncc1-c1cc([C@H](C(=O)N2C[C@H](O)C[C@H]2C(=O)N[C@@H](C)c2ccc(-c3scnc3C)cc2)C(C)C)on1` [Compound 97, (2S,4R)-4-hydroxy-1-((R)-2-(3-(6-((S)-3-(3-(2-hydroxyphenyl)-5-methylthieno[2,3-c]pyridazin-6-yl)pyrrolidin-1-yl)-4-methylpyridin-3-yl)isoxazol-5-yl)-3-methylbutanoyl)-N-((S)-1-(4-(4-methylthiazol-5-yl)phenyl)ethyl)pyrrolidine-2-carboxamide] the “BRM HiBit Degradation Maximum (%)” value (HiBit-BRM fusion protein) was “A (“A” indicates maximum degradation ≥75%)”, the DC50 (HiBit-BRM fusion protein) was > 0.01 µM and the Dmax [1] was < 50%.

`Cc1ncsc1-c1ccc([C@H](C)NC(=O)[C@@H]2C[C@@H](O)CN2C(=O)[C@@H](c2cc(-c3ccc(N4CC(c5sc6nnc(-c7ccccc7O)cc6c5C)C4)nc3)no2)C(C)C)cc1` [Compound 49, (2S,4R)-4-hydroxy-1-((R)-2-(3-(6-(3-(3-(2-hydroxyphenyl)-5-methylthieno[2,3-c]pyridazin-6-yl)azetidin-1-yl)pyridin-3-yl)isoxazol-5-yl)-3-methylbutanoyl)-N-((S)-1-(4-(4-methylthiazol-5-yl)phenyl)ethyl)pyrrolidine-2-carboxamide] was tested, and the “BRM HiBit Degradation Maximum (%)” value (HiBit-BRM fusion protein) was “B (“B” indicates maximum degradation ≥50%)”, the DC50 (HiBit-BRM fusion protein) was > 0.01 µM and the Dmax [1] was < 50%. The DC50 [1] was > 1 µM.

With `Cc1cc(-c2cc([C@H](C(=O)N3C[C@H](O)C[C@H]3C(=O)N[C@@H](C)c3ccc(-c4scnc4C)cc3)C(C)C)on2)ccc1N1CCC(c2sc3nnc(-c4ccccc4O)cc3c2C)CC1` (single isomer, unassigned) [Compound 3] the “BRM HiBit Degradation Maximum (%)” value (HiBit-BRM fusion protein) was “A (“A” indicates maximum degradation ≥75%)”, the DC50 (HiBit-BRM fusion protein) was > 0.01 µM and the Dmax [1] was < 50%. The DC50 [1] was > 1 µM.

In the case of `Cc1ncsc1-c1ccc([C@H](C)NC(=O)[C@@H]2C[C@@H](O)CN2C(=O)[C@@H](c2cc(-c3cnc(N4C[C@H]5C[C@@H](C4)[C@H]5c4cc5cc(-c6ccccc6O)nnc5s4)nc3)no2)C(C)C)cc1` [Compound 15, (2S,4R)-4-hydroxy-1-((R)-2-(3-(2-((1R,5S,6S)-6-(3-(2-hydroxyphenyl)thieno[2,3-c]pyridazin-6-yl)-3-azabicyclo[3.1.1]heptan-3-yl)pyrimidin-5-yl)isoxazol-5-yl)-3-methylbutanoyl)-N-((S)-1-(4-(4-methylthiazol-5-yl)phenyl)ethyl)pyrrolidine-2-carboxamide], the “BRM HiBit Degradation Maximum (%)” value (HiBit-BRM fusion protein) is reported as “B (“B” indicates maximum degradation ≥50%)”, the DC50 (HiBit-BRM fusion protein) is reported as > 0.1 µM and the Dmax [1] is reported as < 50%. The DC50 [1] was > 1 µM.

— patent publication US20250304596A1, “PYRAZINE DERIVATIVES AND USES THEREOF” (FOGHORN THERAPEUTICS INC., priority 2022, published 2025)
